Patent publication US7211601B2, “Pharmaceutically active pyrrolidine derivatives” (Applied Research Systems Ars Holding N.V., priority 2000, dated 2007)

What was measured:
hOT-R [1] = biological target: T1, hOT-R (Homo sapiens, UniProt P30559); experiment: In vitro binding assay (SPA), competition with [125I]-OVTA on membranes from HEK293EBNA cells expressing the hOT receptor; design: expressed in transfected cells; host or cells: HEK293EBNA; details: 0.2 nM [125I]-OVTA, read-out: Binding affinity human OT-R IC50
T1 sequence (P30559 1-389): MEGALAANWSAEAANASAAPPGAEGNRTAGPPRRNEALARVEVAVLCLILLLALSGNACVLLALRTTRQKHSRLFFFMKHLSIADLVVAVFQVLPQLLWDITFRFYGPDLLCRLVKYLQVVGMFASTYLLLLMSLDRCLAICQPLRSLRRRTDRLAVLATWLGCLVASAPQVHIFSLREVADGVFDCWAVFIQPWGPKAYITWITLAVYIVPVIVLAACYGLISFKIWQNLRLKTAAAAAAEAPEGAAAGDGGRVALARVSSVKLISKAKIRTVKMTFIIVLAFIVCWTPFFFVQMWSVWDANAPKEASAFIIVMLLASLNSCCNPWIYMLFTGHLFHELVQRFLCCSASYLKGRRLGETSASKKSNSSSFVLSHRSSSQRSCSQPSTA
Method: a) In Vitro Binding Assay (SPA)
Membranes from HEK293EBNA cells expressing the hOT receptor were resuspended in buffer containing 50 mM Tris-HCl, pH 7.4,5 mM MgCl2 and 0.1% BSA (w/v). The membranes (2–4 μg) were mixed with 0.1 mg wheat-germ aglutinin (WGA) SPA bead (type A) and increasing concentrations of [^125I]-OVTA (for saturation binding experiments) or 0.2 nM [^125I]-OVTA (for competition binding experiments). Non specific binding was deter-mined in the presence of 1 μM Oxytocin. The total assay volume was 100 μl. The plates were incubated at room temperature for 30 min and counted on a Mibrobeta plate counter. The competition binding data were analysed using the iterative, nonlinear, curve-fitting program, Prism.
The binding affinities to the oxytocin receptor of the pyrrolidine derivatives claimed in the formula I were assessed using the above described in vitro biological assay. The values refer to the binding capacity of the example compounds according to formula I to the Oxytocin receptor. From the values shown in Table 1 it can be derived that said test compounds according to formula I do show a significant binding to the Oxytocin receptor.

hOT-R [2] = biological target: T1, hOT-R; experiment: Functional assay No. 1: inhibition of oxytocin-induced Ca2+-mobilization by FLIPR; assay type: cell-based; design: expressed in transfected cells; host or cells: HEK cells (CHO cells also mentioned); details: oxytocin-induced intracellular Ca2+ mobilization, read-out: Inhibition of Ca^2+ mobilization, hOT-R IC50
Method: c) Functional Assay No. 1: Inhibition of Ca^2+-Mobilization by FLIPR
Preparing the plates: FLIPR-plates were pre-coated with PLL 10 μg/ml+0.1% gelatine for 30 min up to 2 days at 37° C. (for HEK-cells). The cells were plated out into 96-well plates (60000 cells/well).
Labelling with fluo-4: 50 μg fluo-4 were dissolved in 20 μl pluronic acid (20% in DMSO). The dissolved fluo-4 was then diluted in 10 ml DMEM-F12 medium without FCS. The medium was removed from the plates, followed by one wash with DMEM-F12 medium. Now, 100 μl of the DMEM-F12 medium containing fluo-4 were added and the cells incubated for 1–1.5 h (CHO-cells), and 1.5–2 h (HEK-cells).
Buffer: 145 mM NaCl, 5 mM KCl, 1 mM MgCl2, 10 mM Hepes, 10 mM Glucose, EGTA. Adjust to pH 7.4.
Preparation of agonists and antagonists: A minimum of 80 μl/well of agonists and anta-gonists (5×) in the above buffer (1×) were prepared (96-well plates).
The activities of the pyrrolidine derivatives according to formula I were assessed using the above described in vitro biological assay. The values refer to the capacity of the example compounds according to formula I to effectively antagonize oxytocin-induced intracellular Ca^2+-mobilization mediated by the Oxytocin receptor.

[3] = test system: oxytocin-induced uterine contractions in the rat; experiment: In vivo model for inhibition of uterine contractions (oxytocin-induced, anaesthetised DES-treated rats); details: intravenous, PEG400/saline 50:50, 5 ml/kg infusion
Method: e) In Vivo Model for Inhibition of Uterine Contractions
Non-pregnant Charles River CD(SD) BR female rats (9–10 weeks old, 200–250 g) were treated at 18 and 24 hours before the experiment with 250 μg/kg, i.p. diethylstilbestrol (DES). For the assay, the animal was anaesthetised by urethane (1.75 g/kg, i.p.) and placed on an homeothermic operating table. The trachea was isolated and cannulated with a suitable polyethylene (PE) tubing. A midline incision at the hypogastrium level was made and one uterine horn exposed, its cephalic end cannulated with a PE240 tubing and, after filling the internal cavity with 0.2 ml of sterile physiological saline, connected to a “Gemini” amplifying/recording system via a P23ID Gould Statham pressure transducer. For the i.v. route of administration of the test compounds, one jugular vein was isolated and cannulated with a PE60 tubing connected to a butterfly needle to allow the administration by a dispensing syringe. In the case of intraduodenal administration of the test compounds, the duodenum was isolated and similarly cannulated through a small incision in its wall. One carotid artery was also isolated and cannulated with PE60 catheter and connected to a suitable syringe for blood sample collection (see below). After a stabilization period, the same dose of oxytocin was repeatedly injected intravenously at 30-min intervals. […] Further injections of the same dose of oxytocin were then made for a suitable time after treatment to assess inhibitory effects of the compounds under study. The contractile response of the uterus to oxytocin was quantified by measuring the intrauterine pressure and the number of contractions. The effect of the reference and test compounds were evaluated by comparing pre- and post-treatment pressure values. In addition, at 2, 30, 90 and 210 minutes after test compound administration, a 0.5-ml blood sample was withdrawn from the cannulated carotid artery of each experimental animal. Plasma was obtained by standard laboratory procedure and the resulting samples were stored at −20° C.
The activities of the pyrrolidine derivatives claimed in the formula I were assessed using the above described in vivo biological assay. The values refer to the capacity of the example compound according to formula I to effectively antagonize oxytocin-induced -uterine contractions in the rat.

Row | Structure (SMILES) | IC50 (hOT-R [1]) | IC50 (hOT-R [2]) | also measured
1 | CON=C1C[C@@H](C(=O)NCCCO)N(C(=O)c2ccc(-c3ccccc3C)cc2)C1 [Example 377, (2S,4EZ)-N-(3-hydroxypropyl)-4-(methoxyimino)-1-[(2′-methyl[1,1′-biphenyl]-4-yl)carbonyl]-2-pyrrolidinecarboxamide] | 370 nM | – | –
2 | CO/N=C1/C[C@@H](C(=O)NCCO)N(C(=O)c2ccc(-c3ccccc3)cc2)C1 [(2S,4Z)-1-([1,1′biphenyl]-4-ylcarbonyl)-N-(2-hydroxyethyl)-4-(methoxyimino)-2-pyrrolidinecarboxamide] | – | 650 nM | –
3 | CON=C1C[C@@H](C(=O)NCC[C@@H](O)c2ccccc2)N(C(=O)c2ccc(-c3ccccc3C)cc2)C1 [Example 433, (2S,4EZ)-N-[(3R)-3-hydroxy-3-phenylpropyl]-4-(methoxyimino)-1-[(2′-methyl[1,1′-biphenyl]-4-yl)carbonyl]-2-pyrrolidinecarboxamide] | – | 320 nM | –
4 | CON=C1C[C@@H](C(=O)NCCC(N)=O)N(C(=O)c2ccc(-c3ccccc3C)cc2C)C1 [Example 410, (2S,4EZ)-N-(3-amino-3-oxopropyl)-1-[(2′,3-dimethyl[1,1′-biphenyl]-4-yl)carbonyl]-4-(methoxyimino)-2-prrolidinecarboxamide] | 540 nM | – | –
5 | CON=C1C[C@@H](C(=O)NC[C@@H](O)c2ccccc2)N(C(=O)c2cccc(Oc3ccccc3)c2)C1 (racemic) [Example 278] | 2300 nM | – | –
6 | O=C(NCC(O)c1ccccc1)[C@@H]1C/C(=C/Cl)CN1C(=O)c1ccc(-c2ccccc2)cc1 (mixture of isomers) [(2S,4Z)-1-([1,1′-biphenyl]-4-ylcarbonyl)-4-(chloromethylene)-N-[(2RS)-2-hydroxy-2-phenylethyl]-2-pyrrolidinecarboxamide] | 350 nM | – | –
7 | CO/N=C1/C[C@@H](c2nc3ccccc3[nH]2)N(C(=O)c2ccc(-c3ccccc3)cc2)C1 [(3Z,5S)-5-(1H-benzimidazol-2-yl)-1-([1,1′-biphenyl]-4-ylcarbonyl)-3-pyrrolidinone O-methyloxime] | 630 nM | 400 nM | –
8 | CON=C1C[C@@H](C(=O)N[C@@H]2CCCC[C@H]2CO)N(C(=O)c2ccc(-c3ccccc3OC)cc2)C1 [Example 384, (2S,4EZ)-N-[(1R,2R)-2-(hydroxymethyl)cyclohexyl]-1-[(2′-methoxy[1,1′-biphenyl]-4-yl)carbonyl]-4-(methoxyimino)-2-pyrrolidinecarboxamide] | 550 nM | – | –

Further molecules by falling IC50 (hOT-R [1]), results first:

Row | IC50 (hOT-R [1]) | IC50 (hOT-R [2]) | Structure (SMILES) | also measured
9 | 300 nM | – | CON=C1C[C@@H](C(=O)N2CCC(O)CC2)N(C(=O)c2ccc(-c3ccccc3C)cc2)C1 [Example 372, (3EZ,5S)-5-[(4-hydroxy-1-piperidinyl)carbonyl]-1-[(2′-methyl[1,1′-biphenyl]-4-yl)carbonyl]-3-pyrrolidinone O-methyloxime] | –
10 | 170 nM | – | CON=C1C[C@@H](C(=O)NC[C@@H](O)c2ccccc2)N(C(=O)c2ccc(-c3ccccc3Cl)cc2)C1 [Example 438, (2S,4EZ)-N-[(2S)-2-hydroxy-2-phenylethyl]-4-(methoxyimino)-1-{[2′-chloro[1,1′-biphenyl]-4-yl]carbonyl}-2-pyrrolidinecarboxamide] | –
11 | 130 nM | 70 nM | CO/N=C1\C[C@@H](C(=O)NC[C@@H](O)c2ccccc2)N(C(=O)c2ccc(-c3ccccc3C)cc2)C1 [drawing 17, (2S,4E)-N-[(2S)-2-hydroxy-2-phenylethyl]-4-(methoxyimino)-1-[(2′-methyl[1,1′-biphenyl]-4-yl)carbonyl]-2-pyrrolidinecarboxamide] | –
12 | 70 nM | 30 nM | CO/N=C1/C[C@@H](C(=O)NC[C@@H](O)c2ccccc2)N(C(=O)c2ccc(-c3ccccc3C)cc2)C1 [drawing 18, (2S,4Z)-N-[(2S)-2-hydroxy-2-phenylethyl]-4-(methoxyimino)-1-[(2′-methyl[1,1′-biphenyl]-4-yl)carbonyl]-2-pyrrolidinecarboxamide] | % Reduction of Utenne Contraction ([3]; dose 0.3 mg/kg): −23.8 ± 4.1%; % Reduction of Utenne Contraction ([3]; dose 1 mg/kg): −27.6 ± 4.6%; % Reduction of Utenne Contraction ([3]; dose 3 mg/kg): −50.4 ± 5.8%; % Reduction of Utenne Contraction ([3]; dose 10 mg/kg): −65.6 ± 6.4%; % Reduction of Utenne Contraction ([3]; dose 30 mg/kg): −76.5 ± 4.24%
